For experiment [1], the system named is H5N1 subtype. The experiment can be described thus: Antiviral activity against pseudotyped Influenza A virus H5N1 (Goose/Qinghai/59/05) infected in human A549 cells assessed as inhibition of viral replication at 12.5 uM incubated for 48 hrs by luciferase reporter gene assay relative to control. The format is functional. Particulars: Goose/Qinghai/59/05, A549, 48 h. Background: A reporter such as luciferase makes a cellular process visible.

For experiment [2], the system named is Influenza A virus. Put plainly: Antiviral activity against Influenza A virus (A/Puerto Rico/8/1934(H1N1)) infected in MDCK cells incubated for 1 hr and measured after 36 hrs by PR8-PB2 Gaussia luciferase reporter gene assay. The format is functional, organism-based.
In experiment [3] the test system is H5N1 subtype. The experiment can be described thus: Antiviral activity against pseudotyped Influenza A virus H5N1 (Goose/Qinghai/59/05) infected in human A549 cells assessed as inhibition of viral replication at incubated for 48 hrs by luciferase reporter gene assay. The format is functional, organism-based. The note with it: Goose/Qinghai/59/05, A549, 48 h.
Experiment [4] deals with H5N1 subtype. The experiment can be described thus: Antiviral activity against Influenza A virus (A/Viet Nam/1203/2004(H5N1)) infected in human A549 cells assessed as decrease in viral titer at 20 uM by standard plaque assay. The format is functional.
The subject of experiment [5] is H5N1 subtype. The experiment can be described thus: Antiviral activity against Influenza A virus (A/Viet Nam/1203/2004(H5N1)) infected in human A549 cells assessed as decrease in viral titer at 1 uM by standard plaque assay. The format is functional, organism-based.
Experiment [6] has as its system Influenza A virus. Put plainly: Antiviral activity against Influenza A virus (A/Puerto Rico/8/1934(H1N1)) infected in human A549 cells assessed as decrease in viral titer at 1 uM by standard plaque assay. The format is functional, organism-based.
The test system of experiment [7] is Influenza A virus. Put plainly: Antiviral activity against Influenza A virus (A/Puerto Rico/8/1934(H1N1)) infected in MDCK cells incubated for 1 hr and measured after 36 hrs by PR8-NS1 Gaussia luciferase reporter gene assay. The format is functional, organism-based.
The subject of experiment [8] is Influenza A virus. Put plainly: Antiviral activity against Influenza A virus (A/Puerto Rico/8/1934(H1N1)) infected in MDCK cells assessed as combination index at 68 nM incubated for 1 hr and measured after 36 hrs in presence of 156 nM Oseltamivir carboxylate by PR8-NS1 Gaussia luciferase reporter gene assay. The format is functional.
In experiment [9] the test system is Influenza A virus. The experiment can be described thus: Antiviral activity against Influenza A virus (A/Puerto Rico/8/1934(H1N1)) infected in MDCK cells assessed as combination index at 35 nM incubated for 1 hr and measured after 36 hrs in presence of 156 nM Oseltamivir carboxylate by PR8-NS1 Gaussia luciferase reporter gene assay. The format is functional.
The test system of experiment [10] is Influenza A virus. Put plainly: Antiviral activity against Influenza A virus (A/Puerto Rico/8/1934(H1N1)) infected in MDCK cells assessed as combination index at 57 nM incubated for 1 hr and measured after 36 hrs in presence of 156 nM Oseltamivir carboxylate by PR8-NS1 Gaussia luciferase reporter gene assay. The format is functional.
The subject of experiment [11] is Influenza A virus. The experiment can be described thus: Antiviral activity against Influenza A virus (A/Puerto Rico/8/1934(H1N1)) infected in MDCK cells assessed as combination index at 83 nM incubated for 1 hr and measured after 36 hrs in presence of 156 nM Oseltamivir carboxylate by PR8-NS1 Gaussia luciferase reporter gene assay. The format is functional.
Experiment [12] deals with Influenza A virus. The experiment can be described thus: Antiviral activity against Influenza A virus (A/Puerto Rico/8/1934(H1N1)) infected in MDCK cells assessed as combination index at 114 nM incubated for 1 hr and measured after 36 hrs in presence of 156 nM Oseltamivir carboxylate by PR8-NS1 Gaussia luciferase reporter gene assay. The format is functional.
In experiment [13] the test system is Influenza A virus. Put plainly: Antiviral activity against Influenza A virus (A/Puerto Rico/8/1934(H1N1)) infected in MDCK cells assessed as combination index at 42 nM incubated for 1 hr and measured after 36 hrs in presence of 156 nM Oseltamivir carboxylate by PR8-NS1 Gaussia luciferase reporter gene assay. The format is functional.
Experiment [14] relates to Influenza A virus. The experiment can be described thus: Antiviral activity against Influenza A virus (A/Puerto Rico/8/1934(H1N1)) infected in MDCK cells assessed as combination index at 49 nM incubated for 1 hr and measured after 36 hrs in presence of 156 nM Oseltamivir carboxylate by PR8-NS1 Gaussia luciferase reporter gene assay. The format is functional.

Activity calls are given as the source filed them. The calls are words filed in the database; no cut-off is given here.

Usually inhibition stands for the change of the read-out against control, counted positive when it falls. What is called EC50 is the midpoint of the concentration-response curve. As a reminder, the EC30 is the point of the concentration-response curve where the effect stands at 30%. Read a high EC30 as weaker potency. Usually EC70 stands for the point of the concentration-response curve where the effect stands at 70%. A low value points to an effect from little substance. The term EC80 denotes the concentration at which the effect reaches the 80% level. A low value points to greater potency. The term EC90 denotes the concentration at which the effect reaches the 90% level. A higher EC90 goes with a need for much substance.

Regarding `CC(C)N1CCC(N(C)C(=O)c2c(Cl)cccc2Cl)CC1`, the inhibition at 12.5 µM in experiment [1] turned out to be 91%. Moreover, the values for the EC50 in [2] and in experiment [3] were 724 nM and 4450 nM, respectively.
In the case of `CC(C)(C)N1CCC(NC(=O)c2c(Cl)cccc2Cl)CC1`, the inhibition at 12.5 µM in experiment [1] turned out to be 99%. For the same molecule, the inhibition at 20 µM in experiment [4] came to 100%. The figures for the EC50 in experiment [2] and in experiment [3] were 113 nM and 510 nM, respectively. Further, the inhibition result in [5] and in experiment [6] was “Active” throughout.
Turning to `CC(C)N1CCC(NC(=O)c2c(Cl)cccc2Cl)C1` (stereo unspecified), the inhibition at 12.5 µM in [1] amounted to 11%.
Regarding `CC(C)N1CC[C@@H](NC(=O)c2ccc(C(F)(F)F)cc2Cl)[C@H](F)C1`, in experiment [1], the inhibition at 12.5 µM turned out to be 99%. Besides, the EC50 was found to be 263 nM in experiment [2] and 630 nM in experiment [3].
In the case of `CO[C@H]1CN(C(C)C)CC[C@H]1NC(=O)c1c(Cl)cccc1Cl`, in experiment [1], the inhibition at 12.5 µM worked out at 64%.
In experiment [7], `CCC(CC)O[C@@H]1C=C(C(=O)O)C[C@H](N)[C@H]1NC(C)=O` [OSELTAMIVIR CARBOXYLATE] gave an EC30 of 160 nM. This molecule returned an EC40 in [7] of 229 nM. Besides, the EC50 in experiment [7] was 318 nM. Further, the EC60 in experiment [7] amounted to 441 nM. This molecule registered an EC70 in [7] of 629 nM. Also, the 80% effect level in [7] (EC80) was put at 972 nM. In experiment [7], this molecule registered an EC90 of 1870 nM. Further, the CI in [8] was determined as 0.51; in experiment [9], 1.23; in experiment [10], 0.61; in experiment [11], 0.42; in experiment [12], 0.34; in experiment [13] it was 0.94. In [14], the CI came out at 0.75. In [4], the inhibition result is “inactive”.
For the molecule `CC(C)N1CCN(C(=O)c2c(Cl)cccc2Cl)CC1`, the inhibition at 12.5 µM in experiment [1] came out at 4%.
On to `CC(C)N1CC[C@@H](NC(=O)c2ccc(C(F)(F)F)cc2Cl)[C@@H](F)C1`, for which, in [1], the inhibition at 12.5 µM turned out to be 87%. In addition, the EC50 in experiment [2] worked out at 989 nM; in experiment [3], 2930 nM.
For `CC(C)N1CCC(NC(=O)c2ncc(C(F)(F)F)cc2Cl)CC1`, the inhibition at 12.5 µM in [1] was 76%.
Same read-out and setting: then `O=C(NC1CCN(C2CC2)CC1)c1c(Cl)cccc1Cl`, with 33%; and `CC(C)N1CCC2(CC1)OCCN2C(=O)c1c(Cl)cccc1Cl`, with 19%.
For `CC(C)N1CC[C@H](NC(=O)c2ccc(C(F)(F)F)cc2Cl)[C@H](F)C1`, the inhibition at 12.5 µM in [1] came to 99%. Besides, in experiment [4], the inhibition at 20 µM was 100%. The values for the EC50 in experiment [2] and in [3] were 195 nM and 670 nM, respectively. Besides, the inhibition result in [5] and in experiment [6] was “Active” in each case.
On to `CC(C)CN1CCC(NC(=O)c2ccc(C(F)(F)F)cc2Cl)CC1`, for which the inhibition at 12.5 µM in [1] was determined as 73%.
Same read-out and setting: the same measure for `O=C(NC1CCN(C2COC2)CC1)c1c(Cl)cccc1Cl`: 7%; for `CC(C)N1CCCC(NC(=O)c2c(Cl)cccc2Cl)C1` (stereo unspecified): 14%.
With `O=C(NC1CCN(C2CCCCC2)CC1)c1ccc(C(F)(F)F)cc1Cl`, the inhibition at 12.5 µM in [1] worked out at 98%. In addition, the EC50 in experiment [2] worked out at 505 nM; in [3] it was 910 nM.
Take `CC(C)N1CCCC(NC(=O)c2c(Cl)cccc2Cl)CC1` (stereo unspecified): in [1], the inhibition at 12.5 µM was found to be 71%.
Still for that read-out and setting: then `CC(C)N1CCC(N(Cc2ccccc2)C(=O)c2c(Cl)cccc2Cl)CC1`, with 64%.
Regarding `CC(C)N1CCC(C)(NC(=O)c2c(Cl)cccc2Cl)CC1`, in [1], the inhibition at 12.5 µM stood at 75%.
Still for that read-out and setting: then `O=C(NC1CCN(C2CCC2)CC1)c1c(Cl)cccc1Cl`, with 76%; and `CC(C)N1CCC(NC(=O)c2ncc(Cl)cc2Cl)CC1`, with 39%.
Regarding `CC(C)CN1CCC(NC(=O)c2c(Cl)cccc2Cl)CC1`, in [1], the inhibition at 12.5 µM worked out at 89%. Further, the EC50 in experiment [2] came to 852 nM; in experiment [3], 2150 nM.
On to `CC(C)N1CCC(NS(=O)(=O)c2ccc(Cl)cc2Cl)CC1`, for which the inhibition at 12.5 µM in experiment [1] was 1%.
For `CC(C)N1CC[C@H](NC(=O)c2c(Cl)cccc2Cl)[C@@H](F)C1`, the inhibition at 12.5 µM in experiment [1] turned out to be 87%. Further, the EC50 is 885 nM in [2] and 1810 nM in experiment [3].
On to `CC(C)N1CCC(NC(=O)c2c(Cl)cccc2Cl)C(F)(F)C1` (racemic), for which the inhibition at 12.5 µM in experiment [1] stood at 77%.
As to `CC(C)N1CCC(NC(=O)c2c(Cl)cccc2C(F)(F)F)CC1`, in experiment [1], the inhibition at 12.5 µM is 85%. The EC50 in experiment [2] was 587 nM; in experiment [3], 5620 nM.
For the molecule `CC(C)N1CCC(NC(=O)c2c(Cl)cccc2Cl)CC1`, the inhibition at 12.5 µM in experiment [1] is 90%. Besides, the inhibition at 20 µM in experiment [4] stood at 100%. The EC50 was 272 nM in [2] and 3040 nM in experiment [3]. Besides, the inhibition entry in [5] and in experiment [6] was “Active” each time.
Regarding `CC(C)N1CCC(NC(=O)c2ccc(C(F)(F)F)cc2Cl)CC1`, the inhibition at 12.5 µM in [1] came out at 99%. The inhibition at 20 µM in [4] was found to be 100%. Also, the EC50 in experiment [2] came out at 380 nM; in experiment [3], 360 nM. For the same molecule, the inhibition result in experiment [5] and in experiment [6] was “Active” throughout.
Regarding `CC(C)N1CC[C@H](NC(=O)c2ccc(C(F)(F)F)cc2Cl)[C@@H](F)C1`, the inhibition at 12.5 µM in [1] came to 93%. For the same molecule, the EC50 was 324 nM in [2] and 1160 nM in experiment [3].
Take `CC(C)N1CCC(NC(=O)c2ncccc2Cl)CC1`: in experiment [1], the inhibition at 12.5 µM stood at 40%.
As to `CC(C)N1CCC(NC(=O)c2ccc([N+](=O)[O-])cc2Cl)CC1`, the inhibition at 12.5 µM in experiment [1] was determined as 97%. The EC50 amounted to 211 nM in [2] and 720 nM in experiment [3].
For `CC(C)N1CCC(CNC(=O)c2c(Cl)cccc2Cl)CC1`, in [1], the inhibition at 12.5 µM is 23%.
Turning to `CC(C)N1CCC(NC(=O)c2ccccc2C(F)(F)F)CC1`, the inhibition at 12.5 µM in [1] came out at 31%.
Still for that read-out and setting: the same measure for `CC(C)N1CC2C(C1)C2NC(=O)c1c(Cl)cccc1Cl` (stereo unspecified): 61%.

The record behind these values is ChEMBL document CHEMBL4402569.
